Patent US12559506B2, “Indazole based compounds and associated methods of use” (Arvinas Operations, Inc., priority 2021, dated 2026)
Read-outs that look alike come from different tables or passages of the source.

Assays:
[1] = target: T1, G2019S LRRK2 (Homo sapiens, UniProt Q5S007, G2019S); assay: LRRK2 degradation assay, HiBit-tagged G2019S LRRK2 expressed from plasmid in HEK293 cells (Nano-Glo Dual-Luciferase); type: cell-based; conditions: 24 hours
T1 construct: expressed in transfected cells; host or cells: HEK293 (ATCC CRL-1573), transient transfection, mammalian expression vector with ubiquitin promoter
T1 sequence (Q5S007 whole entry G2019S): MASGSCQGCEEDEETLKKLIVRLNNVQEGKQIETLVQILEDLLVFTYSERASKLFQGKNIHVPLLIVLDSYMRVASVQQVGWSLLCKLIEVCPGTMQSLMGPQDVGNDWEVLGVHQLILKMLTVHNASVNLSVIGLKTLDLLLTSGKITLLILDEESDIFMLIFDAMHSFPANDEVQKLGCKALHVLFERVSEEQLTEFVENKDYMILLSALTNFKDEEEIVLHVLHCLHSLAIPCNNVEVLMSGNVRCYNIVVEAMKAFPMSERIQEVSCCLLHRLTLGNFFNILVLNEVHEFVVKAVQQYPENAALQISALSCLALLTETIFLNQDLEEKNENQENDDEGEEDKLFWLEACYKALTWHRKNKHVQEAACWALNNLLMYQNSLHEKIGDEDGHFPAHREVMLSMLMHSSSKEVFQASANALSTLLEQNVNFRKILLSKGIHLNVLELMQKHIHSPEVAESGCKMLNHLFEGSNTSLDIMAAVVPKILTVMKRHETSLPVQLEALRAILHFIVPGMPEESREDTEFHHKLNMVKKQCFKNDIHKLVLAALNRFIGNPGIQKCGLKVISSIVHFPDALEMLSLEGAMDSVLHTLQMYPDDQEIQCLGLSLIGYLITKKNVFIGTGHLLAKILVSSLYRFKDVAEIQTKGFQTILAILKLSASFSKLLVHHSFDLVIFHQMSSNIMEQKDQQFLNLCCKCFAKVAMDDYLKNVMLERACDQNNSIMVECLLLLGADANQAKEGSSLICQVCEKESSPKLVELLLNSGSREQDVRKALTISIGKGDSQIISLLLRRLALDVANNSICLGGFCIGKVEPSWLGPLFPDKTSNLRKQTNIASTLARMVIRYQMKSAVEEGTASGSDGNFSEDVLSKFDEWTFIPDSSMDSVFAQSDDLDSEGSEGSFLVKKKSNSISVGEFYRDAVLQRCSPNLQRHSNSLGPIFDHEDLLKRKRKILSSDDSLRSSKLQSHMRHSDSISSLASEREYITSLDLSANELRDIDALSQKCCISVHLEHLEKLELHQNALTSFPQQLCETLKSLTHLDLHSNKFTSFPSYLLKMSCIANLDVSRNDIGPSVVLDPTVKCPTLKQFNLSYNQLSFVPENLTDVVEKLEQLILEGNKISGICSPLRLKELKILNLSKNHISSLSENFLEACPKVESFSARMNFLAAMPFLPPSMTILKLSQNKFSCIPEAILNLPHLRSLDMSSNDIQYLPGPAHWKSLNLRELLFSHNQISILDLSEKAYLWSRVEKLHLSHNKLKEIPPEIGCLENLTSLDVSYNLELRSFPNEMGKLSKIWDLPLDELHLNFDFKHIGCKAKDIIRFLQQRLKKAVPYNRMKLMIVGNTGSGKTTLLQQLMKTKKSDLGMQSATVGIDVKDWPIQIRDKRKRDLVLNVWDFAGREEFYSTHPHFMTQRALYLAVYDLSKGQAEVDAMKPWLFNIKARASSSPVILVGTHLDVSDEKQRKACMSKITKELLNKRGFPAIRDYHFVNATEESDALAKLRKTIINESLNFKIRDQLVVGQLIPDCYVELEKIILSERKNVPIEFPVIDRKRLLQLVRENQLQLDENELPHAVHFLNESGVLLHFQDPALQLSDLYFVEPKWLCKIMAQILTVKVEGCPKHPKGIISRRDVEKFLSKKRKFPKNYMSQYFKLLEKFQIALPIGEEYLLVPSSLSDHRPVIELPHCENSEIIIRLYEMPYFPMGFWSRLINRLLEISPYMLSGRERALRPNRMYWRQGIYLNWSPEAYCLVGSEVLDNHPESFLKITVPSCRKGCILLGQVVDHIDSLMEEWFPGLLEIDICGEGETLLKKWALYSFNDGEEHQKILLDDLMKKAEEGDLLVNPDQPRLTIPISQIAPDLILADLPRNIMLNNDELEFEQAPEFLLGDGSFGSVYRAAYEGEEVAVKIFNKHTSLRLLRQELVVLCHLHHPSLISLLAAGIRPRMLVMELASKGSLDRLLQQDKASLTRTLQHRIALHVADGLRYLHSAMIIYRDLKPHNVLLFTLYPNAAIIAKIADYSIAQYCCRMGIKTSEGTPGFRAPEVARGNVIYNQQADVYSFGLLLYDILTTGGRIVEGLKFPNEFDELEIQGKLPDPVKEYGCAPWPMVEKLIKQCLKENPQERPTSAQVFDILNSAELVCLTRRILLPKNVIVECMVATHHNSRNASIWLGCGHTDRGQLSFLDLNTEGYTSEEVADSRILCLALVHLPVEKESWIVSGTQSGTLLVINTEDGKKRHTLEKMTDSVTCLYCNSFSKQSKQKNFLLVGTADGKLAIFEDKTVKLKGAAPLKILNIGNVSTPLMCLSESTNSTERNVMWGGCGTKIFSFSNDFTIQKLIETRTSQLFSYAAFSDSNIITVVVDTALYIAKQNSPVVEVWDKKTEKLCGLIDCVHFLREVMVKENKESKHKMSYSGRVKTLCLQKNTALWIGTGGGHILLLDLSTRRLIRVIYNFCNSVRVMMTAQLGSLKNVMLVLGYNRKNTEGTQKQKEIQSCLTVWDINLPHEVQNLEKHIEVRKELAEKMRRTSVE
Excerpt: (§1) Exemplary Assay for Testing LRRK2 Degradation Driven by Exemplary Hetero-Bifunctional Compounds Designed to Target LRRK2
(§2) The assay measures the degradation of wildtype and G2019S LRRK2 tagged with a HiBit tag on the C-terminus of the protein that was expressed from a mammalian expression vector, driven by the ubiquitin promoter in HEK293 cells. Each compound dose-response was repeated on two separate days, on three separate plates each day.
(§3) Plasmid Preparation. Transfection mixes were assembled as follows and incubated for 30 minutes at room temperature. In a 15 mL tube, 5.25 mL Opti-MEM (no additions) was mixed with 17 μL Firefly Luciferase plasmid at 1 μg/μL and 158 μL WT plasmid DNA at 1 μg/μL (175 μg total DNA) were mixed by flicking. In a new 15 mL tube, 5.25 mL OptiMEM was mixed with 17 μL Firefly Luciferase plasmid at 1 μg/μL and 158 μL G2019S plasmid DNA at 1 μg/μL (175 μg total DNA) were mixed by flicking. X-tremeGene HP was mixed thoroughly using a vortex. Next, 175 μL was added to each tube and flicked to mix. Both tubes were left to incubate for 30 minutes at room temperature.
(§4) While the transfection mixes were incubating, HEK293 cells (acquired from ATCC; ATCC CRL-1573) were harvested with trypsin. Once cells are detached, the cells were resuspended in 12 mL OptiMEM+5% FBS and transferred to a 50 mL tube. The cells were mixed well and counted. Using OptiMEM+5% FBS, the cells were diluted in two 250 mL conical tubes at 0.71×10^6 cells/mL in 70 mL. One tube was labeled “WT” and the other “G2019S”. The WT and G2019S transfection mixes were added dropwise to the corresponding 250 mL tubes. The tubes were mixed first by pipetting then by swirling. The tubes were incubated at room temperature for at least 5 minutes.
(§5) Each tube was swirled before dispensing and after every three plates. Seventy microliters of cells were dispensed with WT or G2019S DNA to seven plates each. Three plates of each were tested with compound plate one (preparation described below) and three plates of each were tested with compound plate two (preparation described below). The first plate from each set served as a “prime” plate and was not used to test compounds. Each plate was incubated in the hood for 10 minutes before placing in the 37° C. incubator for 24 hours.
(§6) Preparation of Compound and Assay Plates. Two compound plates were made using 96 well polypropylene plates. Compounds were made up at 10 mM and were diluted to 1 mM in 30 μL. Each dose response curve included a well of DMSO, as a negative control and for normalization, and a well of 0.5 μM of Compound 4 as a positive control. In addition to seven test compounds, each plate also included a dose response of Compound 4. The compound plates were spun down along at 1200 rpm for 2 minutes.
(§7) The two compound plates were then mixed and 2 μL was diluted in intermediate plates having 248 μL of Opti-Mem in each well. Next, 10 μL diluted compounds from the intermediate plates were added to each test plate (three WT and three G2019S plates per compound plate for a total of 12 assay plates). The plates were incubated for 24 hours at 37° C.
(§8) All assay plates and all Nano-Glo Dual-Luciferase Reporter Assay System components (except for the DLR substrate) were equilibrated to room temperature. Next, the luciferase buffer was mixed with the lyophilized amber bottle until fully dissolved, and 75 μL of the luciferase mixture was added to each well of each assay plate. The assay plates were incubated for 10 minutes at room temperature with shaking for at least 5 minutes, and then read on a plate reader.
(§9) Developing Plates and Analyzing Data. One milliliter of DLR substrate and 1 mL LgBiT Protein were added to the Stop and Glo buffer, and 75 μL of the mixture was added to each well of each plate. Optically clear seals were added to each plate and each plate was incubated for 20 minutes with shaking for at least 10 minutes, and then read on a plate reader. […]

[2] = target: T2, wildtype LRRK2 (Homo sapiens, UniProt Q5S007); assay: LRRK2 degradation assay, HiBit-tagged wildtype LRRK2 expressed from plasmid in HEK293 cells (Nano-Glo Dual-Luciferase); type: cell-based; conditions: 24 hours; for Dmax: read-out: **WT Dmax (%); for DC50: read-out: *WT DC50
T2 construct: expressed in transfected cells; host or cells: HEK293 (ATCC CRL-1573), transient transfection, mammalian expression vector with ubiquitin promoter
T2 sequence (Q5S007 whole entry): as the sequence (Q5S007 whole entry G2019S) above, with S2019G counted along it
Excerpt: as §1, §2, §3, §4, §5, §6, §7, §8, §9

[3] = HiBit-tagged G2019S LRRK2 in HEK293 cells
[4] = HiBit-tagged wildtype LRRK2 in HEK293 cells
[5] = HiBit-tagged G2019S LRRK2, HEK293 cells
[6] = HiBit-tagged wildtype LRRK2, HEK293 cells

SMILES	DC50 [1, 3]	Dmax [1, 3]	Dmax [2, 4]	DC50 [2, 4]	DC50 [1, 5]	Dmax [1, 5]	Dmax [2, 6]	DC50 [2, 6]
CC1(Oc2ccc3[nH]nc(-c4cc(N5CCO[C@H](CN6CCN(CC7CCN(c8ccc9c(c8)C(=O)N(C8CCC(=O)NC8=O)C9=O)CC7)CC6)C5)ncn4)c3c2)CC1 (stereo partly drawn) [Compound 152, 2-(2,6-dioxo-3-piperidyl)-5-[4-[[4-[[(2R)-4-[6-[5-(1-methylcyclopropoxy)-1H-indazol-3-yl]pyrimidin-4-yl]morpholin-2-yl]methyl]piperazin-1-yl]methyl]-1-piperidyl]isoindoline-1,3-dione]	–	–	–	–	< 10 nM	< 50%	< 50%	< 10 nM
C[C@H]1CN(c2cc(-c3n[nH]c4ccc(OC5CC5)cc34)ncn2)CCN1CC1CCN(CC2CCN(c3ccc4c(c3)C(=O)N(C3CCC(=O)NC3=O)C4=O)CC2)CC1 (stereo partly drawn) [Compound 72, 5-{4-[(4-{[(2S)-4-[6-(5-cyclopropoxy-1H-indazol-3-yl)pyrimidin-4-yl]-2-methylpiperazin-1-yl]methyl}piperidin-1-yl)methyl]piperidin-1-yl}-2-(2,6-dioxopiperidin-3-yl)-2,3-dihydro-1H-isoindole-1,3-dione]	10 to 50 nM	50 to 70%	50 to 70%	10 to 50 nM	–	–	–	–
C[C@H]1CN(c2cc(-c3n[nH]c4ccc(OC5(C)CC5)cc34)ncn2)CCN1CCC1CCN(CC2CCN(c3cccc4c3C(=O)N(C3CCC(=O)NC3=O)C4=O)CC2)CC1 (stereo partly drawn) [Compound 138, 2-(2,6-dioxo-3-piperidyl)-4-[4-[[4-[2-[(2S)-2-methyl-4-[6-[5-(1-methylcyclopropoxy)-2H-indazol-3-yl]pyrimidin-4-yl]piperazin-1-yl]ethyl]-1-piperidyl]methyl]-1-piperidyl]isoindoline-1,3-dione]	< 10 nM	≥ 70%	≥ 70%	10 to 50 nM	–	–	–	–
CC1(Oc2ccc3[nH]nc(-c4cc(N5CCN(C[C@H]6CC[C@H](CN7CCN(c8ccc9c(c8)C(=O)N(C8CCC(=O)NC8=O)C9=O)CC7)CC6)CC5)ncn4)c3c2)CC1 (stereo partly drawn) [Compound 101, 2-(2,6-dioxo-3-piperidyl)-5-[4-[[4-[[4-[6-[5-(1-methylcyclopropoxy)-1H-indazol-3-yl]pyrimidin-4-yl]piperazin-1-yl]methyl]cyclohexyl]methyl]piperazin-1-yl]isoindoline-1,3-dione]	< 10 nM	< 50%	50 to 70%	10 to 50 nM	–	–	–	–
C[C@H]1CN(c2cc(-c3n[nH]c4ccc(OC5(C)CC5)cc34)ncn2)CCN1C[C@H]1CCN(CC2CCN(c3ccc4c(c3)C(=O)N(C3CCC(=O)NC3=O)C4=O)CC2)C1 (stereo partly drawn) [Compound 111, 2-(2,6-dioxo-3-piperidyl)-5-[4-[[(3S)-3-[[(2S)-2-methyl-4-[6-[5-(1-methylcyclopropoxy)-1H-indazol-3-yl]pyrimidin-4-yl]piperazin-1-yl]methyl]pyrrolidin-1-yl]methyl]-1-piperidyl]isoindoline-1,3-dione]	–	–	≥ 70%	< 10 nM	–	–	–	–
CC1(Oc2ccc3[nH]nc(-c4cc(N5CCC(CN6CCN(CC7CCN(c8cccc9c8C(=O)N(C8CCC(=O)NC8=O)C9=O)CC7)CC6)CC5)ncn4)c3c2)CC1 (stereo not drawn) [Compound 146, 2-(2,6-dioxo-3-piperidyl)-4-[4-[[4-[[1-[6-[5-(1-methylcyclopropoxy)-2H-indazol-3-yl]pyrimidin-4-yl]-4-piperidyl]methyl]piperazin-1-yl]methyl]-1-piperidyl]isoindoline-1,3-dione]	–	–	50 to 70%	10 to 50 nM	–	–	–	–

Second part, the compound after the results:

DC50 [1, 3]	Dmax [1, 3]	Dmax [2, 4]	DC50 [2, 4]	DC50 [1, 5]	Dmax [1, 5]	Dmax [2, 6]	DC50 [2, 6]	SMILES
< 10 nM	≥ 70%	50 to 70%	< 10 nM	–	–	–	–	CC1(Oc2ccc3[nH]nc(-c4cc(N5CCC(CN6CCC(F)(CN7CCN(c8ccc9c(c8)C(=O)N(C8CCC(=O)NC8=O)C9=O)CC7)CC6)CC5)ncn4)c3c2)CC1 (stereo not drawn) [Compound 83, 2-(2,6-dioxo-3-piperidyl)-5-[4-[[4-fluoro-1-[[1-[6-[5-(1-methylcyclopropoxy)-1H-indazol-3-yl]pyrimidin-4-yl]-4-piperidyl]methyl]-4-piperidyl]methyl]piperazin-1-yl]isoindoline-1,3-dione]
< 10 nM	50 to 70%	< 50%	< 10 nM	–	–	–	–	CC1(Oc2ccc3[nH]nc(-c4cc(N5CCN(CC6CCN(C(=O)C7CCN(c8ccc9c(c8)C(=O)N(C8CCC(=O)NC8=O)C9=O)CC7)CC6)CC5)ncn4)c3c2)CC1 (stereo not drawn) [Compound 90, 2-(2,6-dioxopiperidin-3-yl)-5-(4-{4-[(4-{6-[5-(1-methylcyclopropoxy)-1H-indazol-3-yl]pyrimidin-4-yl}piperazin-1-yl)methyl]piperidine-1-carbonyl}piperidin-1-yl)-2,3-dihydro-1H-isoindole-1,3-dione]
< 10 nM	50 to 70%	50 to 70%	< 10 nM	–	–	–	–	CC1(Oc2ccc3[nH]nc(-c4cc(N5CCC(CN6CCN(C(=O)C7CCN(c8ccc9c(c8)C(=O)N(C8CCC(=O)NC8=O)C9=O)CC7)CC6)CC5)ncn4)c3c2)CC1 (stereo not drawn) [Compound 94, 2-(2,6-dioxopiperidin-3-yl)-5-(4-{4-[(1-{6-[5-(1-methylcyclopropoxy)-1H-indazol-3-yl]pyrimidin-4-yl}piperidin-4-yl)methyl]piperazine-1-carbonyl}piperidin-1-yl)-2,3-dihydro-1H-isoindole-1,3-dione]
< 10 nM	50 to 70%	50 to 70%	< 10 nM	–	–	–	–	C[C@H]1CN(c2cc(-c3n[nH]c4ccc(OC5(C)CC5)cc34)ncn2)CCN1CC1CN(CC2CCN(c3ccc4c(c3)C(=O)N(C3CCC(=O)NC3=O)C4=O)CC2)C1 (stereo partly drawn) [Compound 122, 2-(2,6-dioxo-3-piperidyl)-5-[4-[[3-[[(2S)-2-methyl-4-[6-[5-(1-methylcyclopropoxy)-1H-indazol-3-yl]pyrimidin-4-yl]piperazin-1-yl]methyl]azetidin-1-yl]methyl]-1-piperidyl]isoindoline-1,3-dione]
< 10 nM	≥ 70%	≥ 70%	< 10 nM	–	–	–	–	CC1(Oc2ccc3n[nH]c(-c4cc(N5CCC(CN6CCC(CN7CCN(c8ccc9c(c8)C(=O)N(C8CCC(=O)NC8=O)C9=O)CC7)CC6)CC5)ncn4)c3c2)CC1 (stereo not drawn) [Compound 67, 2-(2,6-dioxo-3-piperidyl)-5-[4-[[1-[[1-[6-[5-(1-methylcyclopropoxy)-2H-indazol-3-yl]pyrimidin-4-yl]-4-piperidyl]methyl]-4-piperidyl]methyl]piperazin-1-yl]isoindoline-1,3-dione]
–	–	50 to 70%	< 10 nM	–	–	–	–	CC1(Oc2ccc3[nH]nc(-c4cc(N5CCC(CN6CC[C@H](CN7CCN(c8ccc9c(c8)C(=O)N(C8CCC(=O)NC8=O)C9=O)CC7)C6)CC5)ncn4)c3c2)CC1 (stereo partly drawn) [Compound 114, 2-(2,6-dioxo-3-piperidyl)-5-[4-[[(3S)-1-[[1-[6-[5-(1-methylcyclopropoxy)-1H-indazol-3-yl]pyrimidin-4-yl]-4-piperidyl]methyl]pyrrolidin-3-yl]methyl]piperazin-1-yl]isoindoline-1,3-dione]
